Test results reported in ChEMBL document CHEMBL1201862, “PubChem BioAssay data set” (2004).
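Values below derive from 48-hour exposures of cells grown in 96-well plates, with endpoints linearly interpolated between the two concentrations bracketing the appropriate inhibition level. Here, GI50 denotes the concentration required for 50% inhibition of growth.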 Activity calls are given as the source filed them. Cut-off read from the data, not from the text of the source: active = GI50 up to about 1.1 µM and inactive = higher. Where a SMILES comes first, the peptide text is derived from it. The star is where a group is joined. OSu = O=C1CCC(=O)N1O*; OBn = c1ccc(CO*)cc1; Bn = c1ccc(C*)cc1

Tests used:
Test in all cases: NCI anticancer screen, dose series, 48 h
TK-10 = system: TK-10
SF-268 = system: SF-268
SN12C = system: SN12C
M14 = system: M14
SNB-75 = system: SNB-75
K562 = system: K562
Malme-3M = system: Malme-3M
ACHN = system: ACHN
MDA-MB-435 = system: MDA-MB-435
HCT-15 = system: HCT-15
OVCAR-8 = system: OVCAR-8
OVCAR-3 = system: OVCAR-3
NCI-H226 = system: NCI-H226
OVCAR-5 = system: OVCAR-5
A549 = system: A549
U-251 = system: U-251
MOLT-4 = system: MOLT-4
SW-620 = system: SW-620
UACC-257 = system: UACC-257
NCI-H522 = system: NCI-H522

Row | SMILES | GI50 (TK-10) | GI50 (SF-268) | GI50 (SN12C) | GI50 (M14) | GI50 (SNB-75) | GI50 (K562) | GI50 (Malme-3M) | GI50 (ACHN) | GI50 (MDA-MB-435) | GI50 (HCT-15) | GI50 (OVCAR-8) | GI50 (OVCAR-3) | GI50 (NCI-H226) | GI50 (OVCAR-5) | GI50 (A549) | GI50 (U-251) | GI50 (MOLT-4) | GI50 (SW-620) | GI50 (UACC-257) | GI50 (NCI-H522)
1 | O=c1ccn(C2OC(CN(O)CCC3C(O)C(CO)OC3n3ccc(=O)[nH]c3=O)C(O)C2O)c(=O)[nH]1 (configuration not stated) | > 100 µM (inactive) | > 100 µM (inactive) | > 100 µM (inactive) | > 100 µM (inactive) | > 100 µM (inactive) | > 100 µM (inactive) | > 100 µM (inactive) | > 100 µM (inactive) | > 100 µM (inactive) | > 100 µM | > 100 µM (inactive) | > 100 µM (inactive) | > 100 µM (inactive) | > 100 µM (inactive) | > 100 µM (inactive) | > 100 µM (inactive) |  |  |  | 
2 | [N-]=[N+]=NC1(c2ccccc2)C(=O)Nc2ccccc2C1=O (configuration not stated) | 49.5 µM (inactive) | 38.2 µM (inactive) | 48.8 µM (inactive) | 20.4 µM (inactive) | 60.3 µM (inactive) | 29.4 µM (inactive) | 40.7 µM (inactive) | 34.6 µM (inactive) | 11.3 µM (inactive) | 33.8 µM |  | 35 µM (inactive) |  | 30 µM (inactive) | 76.4 µM (inactive) | 41.2 µM (inactive) | 21.7 µM (inactive) | 26.4 µM (inactive) | 78.2 µM (inactive) | 
3 | CN(C)CCN(C)P12(Oc3ccccc3O1)Oc1c(Cl)c(Cl)c(Cl)c(Cl)c1O2 | > 100 µM (inactive) | 36.1 µM (inactive) | 42.6 µM (inactive) | 50.5 µM (inactive) | 13.7 µM (inactive) | 35.6 µM (inactive) | 46.6 µM (inactive) | 39.8 µM (inactive) | 50.9 µM (inactive) | 40 µM | 40.7 µM (inactive) | 27.9 µM (inactive) | > 100 µM (inactive) | 46.1 µM (inactive) | 46.9 µM (inactive) | 56.5 µM (inactive) | 34 µM (inactive) | 47.4 µM (inactive) | 29.5 µM (inactive) | 
4 | COC(=O)C[C@](O)(CCCC(C)(C)O)C(=O)O[C@@H]1C(OC)=C[C@]23CCCN2CCc2cc4c(cc2[C@H]13)OCO4 [OMACETAXINE MEPESUCCINATE] | 3.74 µM (inactive) | 0.149 µM (active) | 0.121 µM (active) | 1.21 µM (inactive) | 0.102 µM (active) | 0.0397 µM (active) | 0.0568 µM (active) | 0.617 µM (active) | 4.46 µM (inactive) | 0.217 µM | 0.146 µM (active) |  | 0.09 µM (active) | 0.494 µM (active) |  | 0.0571 µM (active) | 0.0123 µM (active) | 0.0682 µM (active) |  | 
5 | Cc1cc2c(c(C(=O)NCC(=O)N[C@@H](C)C(=O)OCc3ccccc3)c1)Oc1c(cc(C)cc1C(=O)NCC(=O)N[C@@H](C)C(=O)OCc1ccccc1)S2 |  | 37.2 µM (inactive) | > 100 µM (inactive) | > 100 µM (inactive) | 15.8 µM (inactive) | 23 µM (inactive) | 16.1 µM (inactive) | > 100 µM (inactive) | > 100 µM (inactive) | > 100 µM | > 100 µM (inactive) | 22 µM (inactive) | > 100 µM (inactive) | > 100 µM (inactive) | > 100 µM (inactive) | > 100 µM (inactive) | 78 µM (inactive) | > 100 µM (inactive) | > 100 µM (inactive) | 
6 | COc1cc2c(cc1C)NC(=O)/C2=C/c1c(Cl)n(C)c2ccccc12 | 12.4 µM (inactive) | 4.48 µM (inactive) | 12.8 µM (inactive) | 10.6 µM (inactive) | 3.34 µM (inactive) | 3.02 µM (inactive) | 8 µM (inactive) | 10.3 µM (inactive) | 1.71 µM (inactive) | 3.98 µM | 12.5 µM (inactive) | 4.11 µM (inactive) | 4.53 µM (inactive) | 12.5 µM (inactive) | 10.2 µM (inactive) | 10 µM (inactive) | 2.15 µM (inactive) | 3.05 µM (inactive) | 11.9 µM (inactive) | 
7 | Cc1ccc(S(=O)(=O)NC(=O)Nc2ccc(C(=O)O)c(O)c2)cc1 | > 100 µM (inactive) | > 100 µM (inactive) |  | > 100 µM (inactive) | > 100 µM (inactive) | > 100 µM (inactive) | > 100 µM (inactive) | > 100 µM (inactive) | > 100 µM (inactive) | > 100 µM | > 100 µM (inactive) | > 100 µM (inactive) | > 100 µM (inactive) | > 100 µM (inactive) | > 100 µM (inactive) | > 100 µM (inactive) | > 100 µM (inactive) | > 100 µM (inactive) |  | 
8 | CC(C)CC(NC(=O)C(N)CCC(=O)OCc1ccccc1)C(=O)NC(COCc1ccccc1)C(=O)NC(Cc1ccccc1)C(=O)ON1C(=O)CCC1=O (configuration not stated) (H-E(OBn)LS(Bn)F-OSu; configuration not given here) | 26.7 µM (inactive) | 48.3 µM (inactive) | 29.8 µM (inactive) | 33.4 µM (inactive) | 35.7 µM (inactive) |  | 29.2 µM (inactive) | 31.6 µM (inactive) | 33 µM (inactive) |  | 31.6 µM (inactive) |  |  | 28.8 µM (inactive) | 33.6 µM (inactive) | 24.4 µM (inactive) | 25.5 µM (inactive) | 37.8 µM (inactive) | 28.3 µM (inactive) | 18.5 µM (inactive)
9 | O=C(O)CCC(NC(=O)c1ccc(CNc2nc3ccccc3nc2C(=O)O)cc1)C(=O)O (configuration not stated) | > 100 µM (inactive) | > 100 µM (inactive) | > 100 µM (inactive) | > 100 µM (inactive) | > 100 µM (inactive) | > 100 µM (inactive) | > 100 µM (inactive) | > 100 µM (inactive) | > 100 µM (inactive) | > 100 µM | > 100 µM (inactive) | > 100 µM (inactive) | > 100 µM (inactive) | > 100 µM (inactive) | > 100 µM (inactive) | > 100 µM (inactive) | > 100 µM (inactive) | > 100 µM (inactive) | > 100 µM (inactive) | 
10 | CC(C)c1cc(C(C)C)c(Cl)c(Cl)c1O.CC(C)c1cc(Cl)c(O)c(C(C)C)c1Cl | 26.5 µM (inactive) | 18.8 µM (inactive) | 22.4 µM (inactive) | 71.8 µM (inactive) |  | 16.9 µM (inactive) | 24.8 µM (inactive) | 23.4 µM (inactive) | 21.4 µM (inactive) | 36.7 µM | 26.7 µM (inactive) | 24.5 µM (inactive) |  | 48.3 µM (inactive) | 40.2 µM (inactive) | 34.7 µM (inactive) |  | 25.8 µM (inactive) | 20 µM (inactive) | 14 µM (inactive)
11 | CN1C(CC(O)c2ccccc2)CCCC1CC(O)(c1ccccc1)c1ccccc1 (configuration not stated) | 18.5 µM (inactive) | 18.7 µM (inactive) | 17.8 µM (inactive) | 16.8 µM (inactive) | 19.1 µM (inactive) | 29 µM (inactive) | 18.2 µM (inactive) | 19.7 µM (inactive) |  | 16.5 µM | 20.8 µM (inactive) | 15.6 µM (inactive) | 21.1 µM (inactive) | 15 µM (inactive) | 22.1 µM (inactive) | 15.1 µM (inactive) | 17.5 µM (inactive) | 19.4 µM (inactive) | 17.6 µM (inactive) | 19.9 µM (inactive)
12 | CCOC(=O)c1cc2c(nc1N)-c1ncccc1CC2 | > 100 µM (inactive) | > 100 µM (inactive) | 94.4 µM (inactive) | > 100 µM (inactive) | > 100 µM (inactive) | 27 µM (inactive) | > 100 µM (inactive) | 61.7 µM (inactive) |  | 32 µM | 83.6 µM (inactive) | 18.5 µM (inactive) | 66.2 µM (inactive) | > 100 µM (inactive) | 38.5 µM (inactive) | 43.8 µM (inactive) | 47.6 µM (inactive) | 59.8 µM (inactive) | 38.5 µM (inactive) | 33.4 µM (inactive)
13 | CN1CCCNCCN(CCc2ccccn2)CCCN(C)CC1 | > 100 µM (inactive) | > 100 µM (inactive) | > 100 µM (inactive) | > 95.7 µM (inactive) | > 100 µM (inactive) | > 44.9 µM (inactive) | > 100 µM (inactive) | > 100 µM (inactive) |  | > 43.5 µM | > 100 µM (inactive) | > 100 µM (inactive) | > 100 µM (inactive) | > 100 µM (inactive) | > 100 µM (inactive) | > 94.6 µM (inactive) | > 100 µM (inactive) | > 33.8 µM (inactive) | > 100 µM (inactive) | > 100 µM (inactive)
14 | O=C(Nc1ccc([N+](=O)[O-])cc1)C1C(=O)C(=O)N(c2ccc([N+](=O)[O-])cc2)C1=O (configuration not stated) | > 100 µM (inactive) | > 100 µM (inactive) | > 100 µM (inactive) | 16.2 µM (inactive) | > 100 µM (inactive) | 8.07 µM (inactive) | > 100 µM (inactive) | 32.8 µM (inactive) |  | 61.1 µM | > 100 µM (inactive) | > 100 µM (inactive) | > 100 µM (inactive) | > 100 µM (inactive) | > 100 µM (inactive) | > 100 µM (inactive) | > 100 µM (inactive) | 17.6 µM (inactive) | > 100 µM (inactive) | 55.8 µM (inactive)
15 | Cc1ccc(S[C@@](C=O)(NC(=O)OCc2ccccc2)C(F)(F)F)cc1 |  | 22.6 µM (inactive) | 26.7 µM (inactive) | 29.1 µM (inactive) | 22.5 µM (inactive) | 28.6 µM (inactive) | 26.4 µM (inactive) |  | 28.8 µM (inactive) | 22.9 µM | 20.7 µM (inactive) | 42 µM (inactive) | 18.6 µM (inactive) | 23.2 µM (inactive) | 21.2 µM (inactive) | 17.6 µM (inactive) | 21.5 µM (inactive) | 21.8 µM (inactive) | 36.8 µM (inactive) | 
